Measurements reported in patent publication US20130338221A1, “PHOTOAGING PROTECTIVE COMPOSITION CONTAINING CHROMENES DERIVED FROM SARGASSUM HORNERI” (PUKYONG NATIONAL UNIVERSITY INDUSTRY-UNIVERSITY C, priority 2012, published 2013).

Assays:
[1] = system: intracellular glutathione (GSH) in HDF cells; experiment: Intracellular GSH level (mBBr) after UV-A; assay type: cell-based, human
Protocol: Intracellular glutathione (GSH) level in intact cells was determined using monobromobimane as a thiol-staining reagent. HDF cells were seeded into fluorescence microtiter 96-well plates at a density of 5×10^3 cells/well. Cell were washed three times with PBS and treated with various concentrations of the compounds after 6 J/cm^2 of UV-A irradiation and incubated for 30 min. 0.04 mM of Monobromobimane was added to cells and staining was carried out for 24 h at 37° C. in the dark. After staining fluorescence intensity was measured (excitation and emission: 360 and 465 nm) using a GENios® fluorescence microplate reader (Tecan Austria GmbH, Salzburg, Austria).
GSH is the most abundant low molecular weight thiol inside mammalian cells, and changes in glutathione level directly reflect intracellular redox alterations. To investigate the relationship between the increased ROS and the level of antioxidant materials in cells, the intracellular GSH level was measured.

MMP-1 = MMP-1 secretion ELISA in UV-A irradiated HDF; assay type: cell-based, human
Protocol: (§1) For measuring various collagen degradation MMP and inflammatory cytokine, collagen content in a cell, an enzyme-linked immunosorbent assay was used after UV-A irradiation. After irradiating HDF cell with UV-A, the cells were incubated with various concentrations of sample. After 24 h, the supernatants of the HDF cells were collected, and used for testing MMP, cytokine, hyaluronan, and collagen. For testing, Biotrak™ ELISA kits (Amersham Pharmacia Biosciences, England, UK), procollagen ELISA kit (Takara Bio Inc), and Hyaluronan ELISA kits (R&D system) were used according to the manufacturer's instructions.
(§2) Collagens are known to as main component of the skin and degraded by collagenase MMPs. Among MMPs, MMP-1, MMP-8 and MMP-13 are family of collagenases which are capable of degrading triple-helical fibrillar collagens. […] Therefore, inhibitory effect of chromenes on collagenase MMP secretions from the UV-A irradiated dermal fibroblasts was determined using ELISA assay.

MMP-13 = MMP-13 secretion ELISA in UV-A irradiated HDF; assay type: cell-based, human
Protocol: as §1, §2

hyaluronan synthase 1 = experiment: Immunofluorescent labeling of hyaluronan synthase 1 after UV-A; assay type: cell-based, human; conditions: 10 μM
Protocol: (§3) Immunostaining is used to determine the subcellular distribution and organization of proteins. Cells were grown in 6-well plates, Aspirate liquid, then cover cells to a depth of 2-3 mm with 4% formaldehyde in PBS for 15 min at room temperature. Aspirate fixative, rinse three times in PBS for 5 minutes each then incubated primary antibody and for overnight at 4° C. Rinse three times in PBS for 5 min each. Incubate specimen in fluorochrome-conjugated secondary antibody diluted in Antibody Dilution Buffer for 1-2 h at room temperature in dark and incubated with Hoechest 33342 (Sigma-Aldrich Co. MO, USA). For best results, examine specimens immediately using appropriate excitation wavelength. For long-term storage, store slides flat at 4° C. protected from light. The image of HDF cells were collected using Leica invented microscopy (DM IRB) with 40× objective and a digital CCD camera (CTR 6000, Leica, Wetzlar, Germany) under fluorescence.
(§4) It has been reported that the exposure to UV-A causes degradation of collagen and fibronectin in the extracellular matrix. […] Results were evaluated through the images of the labeling assay under a fluorescent microscope with the previously mentioned excitation and emission values.

TNF-α [2] = experiment: TNF-α mRNA and protein expression (RT-PCR, Western blot) in UV-A irradiated HDF; assay type: cell-based, human
Protocol: Total cellular RNA was isolated using Trizol reagent (Invitrogen Co., CA, USA). The 2 μg of isolated RNA was reverse transcribed into cDNA using oligo-(dT) primer (Promega, Madison, Wis., USA). Target cDNA was amplified using the forward and reverse primer sequences. The amplification was carried out at 95° C. for 45 sec, 60° C. for 50 sec and 72° C. for 60 sec for cycles. After amplification step, extension process proceeded consecutively at 72° C. for 5 min. […] Gels were stained with 1 mg/ml of EtBr and photographed by UV illumination using AlphaEase® gel image analysis software (Alpha Innotech., San Leandro, Calif., USA).
Whole cells were lysed in RIPA buffer (Sigma-Aldrich Corp., St. Louis, USA). After centrifugation, total protein amount of cell lysates was determined using Lowry method (BioRad Laboratories, Hercules, Calif., USA). […] All primary monoclonal antibodies were diluted with TBS-T at 1:1000 ratio. Bound antibodies were detected by horseradish peroxidase-conjugated secondary antibodies for 1 h at room temperature and the immunoreactive proteins were detected using a chemiluminescent ECL assay kit (Amersham Pharmacia Biosciences, England, UK) according to the manufacturer's instructions. Western blot bands were visualized using a LAS3000® Luminescent image analyzer (Fujifilm Life Science, Tokyo, Japan).

IL-6 = IL-6 secretion ELISA in UV-A irradiated HDF; assay type: cell-based, human
Protocol: as §1
(§5) To investigate effect of chromenes on the cytokine production in UV-A irradiated dermal fibroblasts, inflammatory cytokine production was measured using ELISA assay (FIGS. 18 to 20).

fibronectin = experiment: Immunofluorescent labeling of fibronectin after UV-A; assay type: cell-based, human; conditions: 10 μM
Protocol: as §3, §4

[3] = system: intracellular reactive oxygen species (ROS) in HDF cells; experiment: Intracellular ROS generation by UV-A (DCFH-DA); assay type: cell-based, human
Protocol: Intracellular formation of reactive oxygen species (ROS) was assessed using oxidation sensitive dye 2′,7′-dichlorofluorescin diacetate (DCFH-DA) as the substrate. HDF cells growing in fluorescence microtiter 96-well plates for 24 h were exposed to UV-A (6 J/cm^2). The exposed cells were loaded with 20 μM DCFH-DA dissolved in PBS and incubated for 30 min in the dark at 37° C. humidified atmosphere of 5% CO2. […] The formation of 2′,7′-dichlorofluorescein (DCF) dissolved in PBS due to oxidation of DCFH in the presence of various ROS was read after every 20 min at the excitation wavelength (Ex) of 485 nm and the emission wavelength (Em) of 535 nm using a fluorescence microplate reader (Tecan Austria GmbH, Salzburg, Austria).
The cell system was labeled with DCFH-DA and followed by UV-A irradiation.

IL-1β = IL-1β secretion ELISA in UV-A irradiated HDF; assay type: cell-based, human
Protocol: as §1, §5

hyaluronan = experiment: Hyaluronan secretion ELISA in UV-A irradiated fibroblasts; assay type: cell-based, human
Protocol: as §1
Then, we evaluated effect of chromenes on hyaluronan secretion by UV-A irradiation.

[4] = system: membrane lipid hydroperoxides of HDF cells; experiment: Cell membrane lipid peroxidation (DPPP) after UV-A; assay type: cell-based, human
Protocol: Intracellular lipid hydroperoxide levels were determined by the fluorescence probe, diphenyl-1-pyrenylphosphine (DPPP). HDF cells were seeded into fluorescence microtiter 96-well plates at a density of […] using serum-free media. After 80% confluence, HDF cells were treated with various concentrations of compounds and incubated for 24 h after 6 J/cm^2 of UV-A irradiation. Then, cells were washed three times with PBS and labeled with 13 μM DPPP (dissolved in DMSO) for 24 h at 37° C. in the dark. DPPP oxide fluorescence intensity was measured after 24 h at the excitation wavelength (Ex) of 361 nm and the emission wavelength (Em) of 380 nm using a GENios® fluorescence microplate reader (Tecan Austria GmbH, Salzburg, Austria).
The levels of lipid hydroperoxides in the presence and absence of chromenes were examined by using specific fluorescence probe, DPPP (FIG. 16). DPPP has been used as a sensitive method for measuring lipid hydroperoxides of cell membranes, since it successfully incorporates into membranes and oxidizes hydroperoxides to emit DPPP-oxide fluorescence.

TNF-α [5] = experiment: TNF-α secretion ELISA in UV-A irradiated HDF; assay type: cell-based, human
Protocol: as §1, §5

[6] = system: human dermal fibroblasts (HDF cells); experiment: Protective effect on viability of UV-A irradiated dermal fibroblasts (MTT assay); assay type: cell-based
Protocol: HDF cells were seeded in 24-well plate at a density of 1×10^5 cells/well with DMEM containing 10% FBS, 2 mM gluramine and 100 μg/ml penicillin-streptomycin at 37° C. humidified atmosphere of 5% CO2. After incubation for 24 h, the cells were exposed to UV-A energy at the range of 6 J/cm^2 (365 nm UV-A light source, Bio-Sun lamp, Vilber Lourmat, Marine, France) in 200 μl of phosphate buffered saline (PBS) to each well. After UV-A irradiation, the cells were incubated for 24 h in serum-free DMEM.
Viability level of HDF cell was determined through ability of mitochondria capable of converting 3-(4,5-dimethylthiazol-2-yl)-2,5-diphenyl tetrazolium bromide (MTT) into a insoluble formazan product. Dermal fibroblasts were grown in 96-well plates at a density of 1×10^4 cells/well. After 24 h, after irradiating UV-A (6 J/cm^2) to the cell, the cells were cultured with the chromenes sample or without the chromenes sample at 37° C. humidified atmosphere of 5% CO2. The supernatant medium was removed, and the cells were incubated with 100 μl of MTT (1 mg/ml) for 4 h. The unconvertived MTT was removed, dimethyl sulfoxide (DMSO) was added, and then cell viability was measured at the absorbance at 540 nm using a microplate reader (Tecan Austria GmbH, Austria) to determine the amount of formazan in a cell. Relative cell viability was quantified as a percentage compared to the control group.

type I procollagen = experiment: Type I procollagen ELISA in UV-A irradiated HDF; assay type: cell-based, human
Protocol: as §1
Alterations of collagen have been thought to be a cause of the clinical skin changes of photoaging. The dermis contains predominantly type I collagen (85-90%) and the precursor molecules of collagen are called procollagen, which is synthesized in the form of polypeptide chains of type I collagen in dermal fibroblasts. UV irradiation induces the activity and synthesis of MMP in human skin, which mediate collagen destruction that results in much connective tissue damage. Therefore, we also studied the effects of chromenes on the level of type I procollagen in UVA-irradiated cultured dermal fibroblasts. The procollagen level was determined in the culture medium by ELISA assay.

[7] = system: cell membrane proteins of HDF cells; experiment: Cell membrane protein oxidation (carbonyl groups, DNPH) after UV-A; assay type: cell-based, human
Protocol: The amount of carbonyl groups in cell membrane proteins was determined to assess the cellular protein oxidation level that is a standard of determining the degree of cell membrane damage. HDF cells were co-cultured with various concentrations of compounds for 24 h after 6 J/cm^2 of UV-A irradiation. Cell were washed three times with PBS and lysed in lysis buffer without reducing agents (25 mM Tris-HCl, pH 7.8, 2 mM EDTA, 180 mM NaCl and 1% Triton X-100). Aliquots of cell lysates were separately incubated then trichloroacetic acid (400 μl from 20% trichloroacetic acid) was added to each reaction mixture and solubilized proteins were precipitated by centrifugation at 3,000 rpm for 15 minutes. Precipitated protein was resuspended in 2% 2,4-dinitrophenylhydrazine (2 mM HCl) and incubated at room temperature for 20 min. The protein was precipitated again with 20% trichloroacetic acid and the pellet was washed three times with ethanol:ethylacetate (1:1 v/v) solution. The pellet was then dissolved in 6 M guanidin hydrochloride (500 μl) and incubated for 15 min at 37° C. After centrifugation at 1,500 g for 5 min, absorbance of the supernatant was recorded against a complementary blank at 370 nm using a GENios® fluorescence microplate reader (Tecan Austria GmbH, Salzburg, Austria).

HDF cells = experiment: Phototoxicity determination (MTT, compounds present during UV-A); assay type: cell-based, human; conditions: retinoic acid 5 μM during UV-A
Protocol: HDF cells are exposed to UV-A light in the presence of chromenes and retinoic acid in concentrations of 5, 10, and 20 μM and 1, 2, and 5 μM, respectively. After 24 h, cell viability was determined by MTT assay.
In order to determine whether compounds have phototoxic effect, the cell viability of dermal fibroblasts was evaluated using MTT assay. Cells were co cultured with compounds and retinoic acid during UV-A irradiation. […] Therefore, the concentration of 1 μM retinoic acid was selected as a positive control for further experiment.

[8] = A and B 5 to 20 μM, C 1 to 10 μM
[9] = Homo sapiens, retinoic acid 1 μM
[10] = Homo sapiens, HDF, retinoic acid 1 μM

With `CC(C)=CCC/C(=C/CC/C(C)=C/CC[C@]1(C)CCc2cc(O)cc(C)c2O1)C(=O)O` [Compound A, sargachromenol] the “Enhancement of GSH level (%)” value ([1]; samples 10 μM) was 23.17%, the “MMP-1 secretion (in words)” value (MMP-1; dose-dependent) was “significantly reduced” and the “MMP-1 inhibition (%)” value (MMP-1; samples 10 μM) was 27.76%. For the same compound, the “MMP-13 secretion (in words)” value (MMP-13; dose-dependent) was “significantly reduced”, the “MMP-13 inhibition (%)” value (MMP-13; samples 10 μM) was 23.82% and the “Hyaluronan synthase 1 amount” value (hyaluronan synthase 1) was “reduced”. For the same compound, the “Inhibition of TNF-α expression” value (TNF-α [2]) was “failed to show significant activity”, the “IL-6 secretion (in words)” value (IL-6; [8]) was “slightly reduced” and the “Inhibition of IL-6 secretion (%)” value (IL-6; samples 10 μM) was 11.11%. For the same compound, the “Protection of fibronectin decomposition” value (fibronectin) was “not as significant as compound C”, the “ROS scavenging (%)” value ([3]; samples 10 μM) was 38.58% and the “IL-1β secretion (in words)” value (IL-1β; [8]) was “slightly reduced”. For the same compound, the “Inhibition of IL-1β secretion (%)” value (IL-1β; samples 10 μM) was 10.07%, the “Hyaluronan (%)” value (hyaluronan; samples 10 μM) was 16.67% and the “Inhibition of lipid peroxidation (%)” value ([4]; samples 10 μM) was 15.63%. The “TNF-α secretion (in words)” value (TNF-α [5]; [8]) was “slightly reduced”, the “Inhibition of TNF-α secretion (%)” value (TNF-α [5]; samples 10 μM) was 20.59% and the “Fibroblasts protection (%)” value ([6]; samples 10 μM) was 37.25%. For the same compound, the “Procollagen (%)” value (type I procollagen; samples 10 μM) was 115.79% and the “Inhibition of protein oxidation (%)” value ([7]; samples 10 μM) was 30.57%.
For `CC1=C(/C=C/C(C)=C/C=C/C(C)=C/C(=O)O)C(C)(C)CCC1` [Retinoic acid, retinoic acid, reference compound], the “Enhancement of GSH level (%)” value ([1]; retinoic acid 1 μM) was 15.85%, the inhibition at 1 µM (MMP-1; [9]) was 30.7% and the inhibition at 1 µM (MMP-13; [9]) was 37.1%. For the same compound, the inhibition at 1 µM (IL-6; [9]) was 14.1%, the “IL-6 level after treatment” value (IL-6; at the same concentration (1 μM), UV-A irradiated HDF) was 119 pg/mL and the “ROS scavenging (%)” value ([3]; retinoic acid 1 μM) was 46.60%. The inhibition at 1 µM (IL-1β; [9]) was 6.71%, the “Hyaluronan (%)” value (hyaluronan; retinoic acid 1 μM) was 31.11% and the Phototoxicity (HDF cells) was “a little phototoxic effect”. The inhibition at 1 µM [4, 10] was 21.6%, the inhibition at 1 µM (TNF-α [5]; [9]) was 24.4% and the “Fibroblasts protection (%)” value ([6]; retinoic acid 1 μM) was 12.21%. The “Type I procollagen secretion level” value (type I procollagen; 1 μM, culture medium, UV-A irradiated HDF) was 60 ng/mL, the “Procollagen (%)” value (type I procollagen; retinoic acid 1 μM) was 57.89% and the inhibition at 1 µM [7, 10] was 55.4%.
